Earlier results in patent publication US5723149A, “Use of medicago saponins for the preparation of cosmetic or pharmaceutical compositions, especially dermatological compositions, promoting renewal of the epidermis, stimulating hair regrowth or delaying hair loss” (LVMH Recherche, priority 1990, dated 1998).

What was measured:
[1] = B. GESTETNER et al., Experientia, 1971
[2] = DE-3 717 280

SMILES: CC1(C)CC[C@]2(C(=O)O)CC[C@]3(C)C(=CC[C@@H]4[C@@]5(C)C[C@H](O)[C@H](O)[C@@](C)(C(=O)O)[C@@H]5CC[C@]43C)[C@@H]2C1 [medicagenic acid]
- hemolytic activity [1]: hemolytic activity
- antifungal activity [2]: antifungal activity
